“And” between values parts separate entries of the source, which are not always exact repeats. Equal entries are not always repeated.
Each compound was assayed against D(3) dopamine receptor (Homo sapiens, UniProt P35462).
Sequence of D(3) dopamine receptor (P35462 as listed by the source): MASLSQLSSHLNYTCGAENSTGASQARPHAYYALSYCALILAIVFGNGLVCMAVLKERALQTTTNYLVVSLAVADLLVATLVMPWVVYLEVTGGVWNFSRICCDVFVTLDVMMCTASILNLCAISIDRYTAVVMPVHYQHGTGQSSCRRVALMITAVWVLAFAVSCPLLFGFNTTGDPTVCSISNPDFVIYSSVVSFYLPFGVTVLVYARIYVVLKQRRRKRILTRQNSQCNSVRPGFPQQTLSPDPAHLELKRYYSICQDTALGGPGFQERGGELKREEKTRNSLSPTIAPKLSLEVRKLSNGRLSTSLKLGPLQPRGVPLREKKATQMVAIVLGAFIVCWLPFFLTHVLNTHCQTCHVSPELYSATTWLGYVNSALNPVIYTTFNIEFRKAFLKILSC

Row | Compound | Ki
1 | CCCN1CCO[C@@H]2c3cc(O)ccc3OC[C@H]21 | 2.14 nM and 7.59 nM and 3.55 nM
2 | N#Cc1ccc2c(c1)[C@H]1CN(CCCCNC(=O)c3ccc(-c4ccccc4)cc3)C[C@@H]1CO2 [S33084] | 0.302 nM and 0.933 nM and 0.372 nM
3 | CCCN(CCC)C1CCc2cc3c(cc2C1)OCC3 (centres undefined) | 12.3 nM and 33.1 nM and 11.5 nM
4 | CCCN(CCC)C1CCc2cc(CS(=O)(=O)c3ccc(OC)cc3)ccc2C1 (centres undefined) [GR218231] | 1.12 nM and 1.95 nM and 1.38 nM

Source: BindingDB's records for doi:10.1007/s002100000217 (Croissy-Sur-Seine Paris, 2000)
